Results from patent US11779768B2, “Protein activity modification” (Impulse Dynamics NV, priority 2004, dated 2023).
pIC50: −log10 of the molar value. Several values for one entry are separate records, joined by “and”; a condition that tells them apart may be missing. Equal entries are not always repeated.

Assays:
protein kinase G = conditions: advertised; read-out: Inhibits protein kinase G IC50; cited from earlier work
normal cells = conditions: advertised; cited from earlier work
[1] = tested on: phospholamban threonin-17; assay: Phosphorylation of PLB at threonine-17 in failing LV tissue homogenate with/without protein kinase inhibitor and CCM signal (Western blot); assay type: biochemical, dog
Description: (§1) The tissue homogenate was prepared in the following manner. […] The homogenate was then filtered through 4 layers of cheese cloth. The resulting homogenate was stored in ice and its protein concentration was determined by the Lowry method.
(§2) The CCM signals were delivered to the homogenate as follows. The homogenate was diluted 2 fold in homogenate buffer and subsequently aliquotted 3 ml each in assay tubes. Assay tubes were divided into 2 sets (Set A and Set B), each subset consisting of […]. CCM signals were delivered for 10″, 30″, 1′, 5′, 30′, and 60′ in one of the sets, while the other set served as time control. The reaction was stopped by adding concentrated SDS. Protein assay on all the samples were performed by Lowry method.
(§3) Additional experiments of tissue homogenate were carried out in the presence and absence of protein kinese inhibitors. The homogenate was the same as above, from dogs with heart failure. […] CAS 62996-74-1.

phospholamban serine-16 = assay: Phosphorylation of PLB at serine-16 in failing LV tissue homogenate with/without protein kinase inhibitor and CCM signal (Western blot); assay type: biochemical, dog
Description: as §1, §2, §3

[2] = tested on: human malignant glioma cell lines; conditions: advertised; cited from earlier work
platelet aggregation = conditions: advertised; cited from earlier work
[3] = tested on: dogs with intracoronary microembolization-induced chronic HF; assay: 3 months therapy with beta-blocker alone, beta-blocker combined with CCM, or no therapy in HF dogs: LV EDV, ESV, EF; assay type: in vivo, dog
Description: In a set of experiments, dogs with intracoronary microembolization-induced chronic HF (LV EF 30%-40%) were randomized to 3 months therapy with either BB (beta-blockers) alone (extended release metoprolol succinate, 100 mg once daily), extended release metoprolol succinate (100 mg, once daily) combined with CCM therapy, or to no therapy at all (Control). LV end-diastolic volume (EDV), end-systolic volume (ESV) and EF were measured before randomization (PRE) and after 3 months of therapy (POST). To determine “treatment effect”, the change A between PRE and POST therapy for each group was compared among the 3 study groups.

[4] = 10 sec, Control + PK Inhibitor (no CCM)
[5] = 20 sec, Control + PK Inhibitor (no CCM)
[6] = 30 sec, Control + PK Inhibitor (no CCM)
[7] = CCM signals delivered for 60 sec, PK Inhibitor + CCM

Question: With `CN[C@@H]1C[C@H]2O[C@@](C)([C@@H]1OC)n1c3ccccc3c3c4c(c5c6ccccc6n2c5c31)C(=O)NC4` [STAUROSPORIN] as the molecule, how does the pIC50 (protein kinase G) read?
Answer: Its pIC50 is 8.07.

Question: What about the “cell cycle of normal cells (G1 checkpoint)” value (normal cells) of the same molecule?
Answer: Its value is “Arrests normal cells at the G1 checkpoint”.

Question: And the “P-PLB threonin-17, single sample” value [1, 4]?
Answer: The value was 8.9 and 9.5.

Question: And the “P-PLB threonin-17, Av” value [1, 5]?
Answer: The value was 9.0.

Question: And the “P-PLB threonin-17, single sample” value [1, 6]?
Answer: Its value is 8.2.

Question: And the “P-PLB threonin-17, Av” value ([1]; 60 sec, Control + PK Inhibitor (no CCM))?
Answer: The value was 13.9.

Question: What about the “P-PLB threonin-17, single sample” value ([1]; CCM signals delivered for 10 sec, PK Inhibitor + CCM) of the same molecule?
Answer: Its value is 14.6 and 9.9 and 8.7.

Question: And the “P-PLB threonin-17, single sample” value ([1]; CCM signals delivered for 20 sec, PK Inhibitor + CCM)?
Answer: Its value is 8.3 and 15.0.

Question: And the “P-PLB threonin-17, Av” value [1, 7]?
Answer: The value was 15.0.

Question: What about the “threonin-17 PLB phosphorylation response to CCM in presence of kinese inhibitor” value ([1]; HF dog LV homogenate) of the same molecule?
Answer: The value was “reduced and delayed response”.

Question: What about the “P-PLB serine-16, single sample” value (phospholamban serine-16; [4]) of the same molecule?
Answer: Its value is 8.0 and 9.0.

Question: What about the “P-PLB serine-16, single sample” value (phospholamban serine-16; [5]) of the same molecule?
Answer: The value was 12.2 and 14.0.

Question: And the “P-PLB serine-16, Av” value (phospholamban serine-16; [6])?
Answer: Its value is 9.4.

Question: What about the “P-PLB serine-16, single sample” value (phospholamban serine-16; [6]) of the same molecule?
Answer: Its value is 6.8 and 9.7.

Question: And the “P-PLB serine-16, single sample” value (phospholamban serine-16; CCM signals delivered for 30 sec, PK Inhibitor + CCM)?
Answer: The value was 14.3 and 13.0.

Question: What about the “P-PLB serine-16, Av” value (phospholamban serine-16; [7]) of the same molecule?
Answer: The value was 19.9.

Question: And the “P-PLB serine-16, single sample” value (phospholamban serine-16; [7])?
Answer: The value was 22.7.

Question: And the “serine-16 PLB phosphorylation response to CCM in presence of kinese inhibitor” value (phospholamban serine-16; HF dog LV homogenate)?
Answer: The value was “responded close to usual”.

Question: What about the “apoptosis in human malignant glioma cell lines” value [2] of the same molecule?
Answer: The value was “Induces apoptosis”.

Question: What about the “platelet aggregation induced by collagen or ADP” value (platelet aggregation) of the same molecule?
Answer: The value was “inhibits”.

Question: And the thrombin-induced platelet aggregation (platelet aggregation)?
Answer: Its thrombin-induced platelet aggregation is “no effect”.

Question: Which “Treatment effect (Δ PRE to POST) LV EF” value ([3]; BB 100 mg once daily combined with CCM therapy) does the source give for `COCCc1ccc(OCC(O)CNC(C)C)cc1` (centres unmarked) [BB, metoprolol succinate] here?
Answer: Its value is 12±1%.

Question: And the “LV EDV, effect of therapy” value ([3]; BB alone)?
Answer: The value was “prevented the increase”.

Question: And the “LV EF, effect of therapy” value ([3]; BB alone)?
Answer: Its value is “significantly increased”.

Question: What about the “LV ESV, effect of therapy” value ([3]; BB alone) of the same molecule?
Answer: The value was “significantly reduced”.

Question: What about the “Treatment effect (Δ PRE to POST) LV EF” value ([3]; BB alone, 100 mg once daily) of the same molecule?
Answer: Its value is 6±1%.

Question: What about the “LV EDV, effect of therapy” value ([3]; BB combined with CCM) of the same molecule?
Answer: The value was “prevented the increase”.

Question: What about the “LV EF, effect of therapy” value ([3]; BB combined with CCM) of the same molecule?
Answer: The value was “significantly increased”.

Question: What about the “LV ESV, effect of therapy” value ([3]; BB combined with CCM) of the same molecule?
Answer: The value was “significantly reduced”.
